Experimental findings from ChEMBL document CHEMBL4680249, “Discovery of new LXRβ agonists as glioblastoma inhibitors” (Eur J Med Chem, 2020) are described below.

Structures are written as SMILES. Activity calls are given as the source filed them. No cut-off for these calls is given here.

In general, IC50 refers to the point on the concentration scale where inhibition reaches its midpoint. For orientation: EC50 means the midpoint of the concentration-response curve. A higher EC50 goes with lower potency in that assay. For orientation: AUC(0-t) means exposure summed from dosing to a finite time, without extrapolation to infinity. A higher AUC(0-t) goes with high exposure. What is called half-life is how long it takes for the measured level to halve. High values mean slow loss, low ones fast loss. For orientation: MRT inf means the average time that molecules of a dose stay in the body. As usually defined, the AUC(0-inf) is total exposure, with the tail of the curve extrapolated. High values mean more exposure, low ones less exposure. As a reminder, the Tmax is the time at which the peak concentration occurs. As usually defined, the Cmax is the highest concentration seen after dosing.

Series [1] concerns U87. The experiment in a line: Agonist activity at LXR in human U87 cells overexpressing EGFR variant III assessed as up regulation of ABCG1 mRNA expression measured after 48 hrs by SYBR green staining based qRT-PCR analysis. The series is classed as cell-based. The following applies: filed as agonist.
The test system of the next series is U-251. The experiment in a line: Antiproliferative activity against human U-251 cells measured after 7 days by CCK8 assay. The note with it: U-251, 168 h.
Series [2] deals with U87. The experiment in a line: Agonist activity at LXR in human U87 cells overexpressing EGFR variant III assessed as up regulation of APOE mRNA expression measured after 48 hrs by SYBR green staining based qRT-PCR analysis. The series is classed as cell-based. The note with it: filed as agonist. (Real-time PCR tracks product formation cycle by cycle.)
Series [3] relates to U-87 MG. Briefly: Antiproliferative activity against LXRbeta knock-down human U87 cells overexpressing EGFR variant III measured after 7 days by CCK8 assay. The series is classed as functional, cell-based. The note with it: U-87MG ATCC, time 7.0 day.
The subject of series [4] is U-87 MG. Briefly: Antiproliferative activity against human U87 cells overexpressing EGFR variant III measured after 7 days by CCK8 assay. The series is classed as functional, cell-based, U-87MG ATCC. A general note: Formazan colour is commonly taken as a measure of viable cells.
Series [5] can be described thus: Cytotoxicity against human HA1800 cells measured after 7 days by CCK8 assay. It is filed as cell-based. The note with it: ha1800, 168 h, time 7 day.
Another series has as its system HEK-293T. Briefly: Cytotoxicity against HEK293T cells measured after 7 days by CCK8 assay. The series is classed as cell-based. The note with it: human, 168 h, time 7 day.
The subject of a further series is A 172. The experiment in a line: Antiproliferative activity against human A 172 cells measured after 7 days by CCK8 assay. The note with it: A 172, 168 h.
For series [6], the system named is U87. Briefly: Agonist activity at LXR in human U87 cells overexpressing EGFR variant III assessed as up regulation of ABCA1 mRNA expression measured after 48 hrs by SYBR green staining based qRT-PCR analysis. The series is classed as cell-based. The note with it: filed as agonist.
The test system of series [7] is U87. The experiment in a line: Agonist activity at LXR in human U87 cells overexpressing EGFR variant III assessed as up regulation of IDOL mRNA expression measured after 48 hrs by SYBR green staining based qRT-PCR analysis. It is filed as cell-based. The note with it: filed as agonist.
Series [8] relates to U87. Briefly: Agonist activity at LXR in human U87 cells overexpressing EGFR variant III assessed as up regulation of SREBP1c mRNA expression measured after 48 hrs by SYBR green staining based qRT-PCR analysis. The series is classed as cell-based. The note with it: filed as agonist.
The nature of series [9]: Effect on serum triglyceride level in Balb/c nu/nu mouse xenografted with human U87 cells overexpressing EGFR variant III at 50 mg/kg/day, ip for 15 days. The note with it: in vivo, 360 h, time 15 day. The series is classed as ADME, organism-based.
Series [10] concerns the target Retinoic acid receptor RXR-alpha/oxysterols receptor LXR-beta (Homo sapiens, UniProt P55055).
Description: Agonist activity at human RXRalpha/LXRbeta expressed in HEK293 cells measured after 20 hrs by dual luciferase reporter gene assay
The target in series [11] is Retinoic acid receptor RXR-alpha/oxysterols receptor LXR-alpha (Homo sapiens, UniProt Q13133).
Description: Agonist activity at human RXRalpha/LXRalpha expressed in HEK293 cells measured after 20 hrs by dual luciferase reporter gene assay
Series [12] can be described thus: AUC (0 to t) in Sprague-Dawley rat at 10 mg/kg, iv measured after 24 hrs by LC-MS/MS analysis. The series is classed as ADME, organism-based. Also on record: route intravenous, time 24 hrs, dose 10 mg/kg. The following applies: in vivo.
Series [13] has as its system U-87 MG. Briefly: Antitumor activity against human U87 cells overexpressing EGFR variant III xenografted in Balb/c nu/nu mouse assessed as reduction in tumor size at 50 mg/kg/day, ip for 15 days by caliper method. The series is classed as functional, organism-based. The following applies: U-87MG ATCC, time 15.0 day. (In general: In xenograft studies the graft and the host belong to different species.)

Series [14] can be described thus: Half life in Sprague-Dawley rat at 10 mg/kg, iv measured after 24 hrs by LC-MS/MS analysis. It is filed as ADME, organism-based. The note with it: in vivo.
Series [15] can be described thus: MRT (infinity) in Sprague-Dawley rat at 10 mg/kg, iv measured after 24 hrs by LC-MS/MS analysis. The following applies: in vivo. The series is classed as ADME, organism-based.
Series [16] in a line: AUC (0 to infinity) in Sprague-Dawley rat at 10 mg/kg, iv measured after 24 hrs by LC-MS/MS analysis. The following applies: in vivo. Also on record: route intravenous, dose 10 mg/kg, time 24 hrs. The series is classed as ADME, organism-based.
Series [17] is described as follows: Toxicity in Balb/c nu/nu mouse xenografted with human U87 cells overexpressing EGFR variant III assessed as body weight loss at 50 mg/kg/day, ip for 15 days. The series is classed as organism-based. The note with it: in vivo, 360 h, time 15 day.
The nature of series [18]: Tmax in Sprague-Dawley rat at 10 mg/kg, iv measured after 24 hrs by LC-MS/MS analysis. It is filed as ADME, organism-based. The note with it: in vivo.
Series [19] in a line: Cmax in Sprague-Dawley rat at 10 mg/kg, iv measured after 24 hrs by LC-MS/MS analysis. It is filed as ADME, organism-based. Further details: route intravenous, time 24 hrs, dose 10 mg/kg. The following applies: in vivo.
[20] abbreviates: Homo sapiens, U-87 MG, 168 h, read-out: IC50.

Chain of Retinoic acid receptor RXR-alpha/oxysterols receptor LXR-alpha (P19793 whole entry): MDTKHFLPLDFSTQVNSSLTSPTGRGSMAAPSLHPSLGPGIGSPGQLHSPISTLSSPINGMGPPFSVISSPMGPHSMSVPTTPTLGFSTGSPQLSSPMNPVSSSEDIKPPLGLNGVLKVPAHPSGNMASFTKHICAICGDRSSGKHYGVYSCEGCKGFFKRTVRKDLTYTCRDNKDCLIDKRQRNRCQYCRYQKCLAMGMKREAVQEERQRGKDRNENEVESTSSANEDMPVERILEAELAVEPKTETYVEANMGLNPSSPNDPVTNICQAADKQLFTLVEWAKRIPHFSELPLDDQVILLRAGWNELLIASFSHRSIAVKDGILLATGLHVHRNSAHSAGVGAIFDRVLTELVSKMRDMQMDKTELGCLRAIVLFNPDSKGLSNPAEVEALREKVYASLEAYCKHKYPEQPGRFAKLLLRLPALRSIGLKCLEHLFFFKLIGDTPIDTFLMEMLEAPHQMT
Chain of Retinoic acid receptor RXR-alpha/oxysterols receptor LXR-alpha (Q13133 whole entry): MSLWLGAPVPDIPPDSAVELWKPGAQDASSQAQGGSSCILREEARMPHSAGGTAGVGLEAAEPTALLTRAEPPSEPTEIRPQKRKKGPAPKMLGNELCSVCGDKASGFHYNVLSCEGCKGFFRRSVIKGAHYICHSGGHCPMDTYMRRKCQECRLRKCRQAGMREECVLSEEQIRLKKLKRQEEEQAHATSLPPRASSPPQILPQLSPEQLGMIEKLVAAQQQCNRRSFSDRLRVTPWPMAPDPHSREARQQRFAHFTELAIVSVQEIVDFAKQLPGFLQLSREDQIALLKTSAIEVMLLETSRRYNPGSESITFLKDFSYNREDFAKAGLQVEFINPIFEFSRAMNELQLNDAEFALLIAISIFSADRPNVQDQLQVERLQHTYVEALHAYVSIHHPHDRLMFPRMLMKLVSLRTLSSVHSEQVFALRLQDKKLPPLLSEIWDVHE
Chain of Retinoic acid receptor RXR-alpha/oxysterols receptor LXR-beta (P19793 whole entry): as the sequence (P19793 whole entry) above
Chain of Retinoic acid receptor RXR-alpha/oxysterols receptor LXR-beta (P55055 whole entry): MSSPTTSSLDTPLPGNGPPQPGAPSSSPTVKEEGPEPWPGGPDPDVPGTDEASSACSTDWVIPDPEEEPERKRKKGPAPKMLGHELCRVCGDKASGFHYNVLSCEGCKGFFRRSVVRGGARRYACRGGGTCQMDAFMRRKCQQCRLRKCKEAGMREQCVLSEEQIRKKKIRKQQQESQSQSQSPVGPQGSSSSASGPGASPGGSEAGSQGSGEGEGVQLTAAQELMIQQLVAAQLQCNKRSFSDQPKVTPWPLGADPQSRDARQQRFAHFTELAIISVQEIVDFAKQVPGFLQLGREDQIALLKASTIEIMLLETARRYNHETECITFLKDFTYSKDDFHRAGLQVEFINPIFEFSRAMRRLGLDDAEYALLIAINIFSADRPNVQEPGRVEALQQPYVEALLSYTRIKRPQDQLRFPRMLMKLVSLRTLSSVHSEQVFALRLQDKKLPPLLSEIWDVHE

Regarding `CC(C)(C)OC(=O)N1CC[C@]2(C(=O)Nc3ccccc32)[C@H]1c1cccc(Nc2ccc(CO)c(S(C)(=O)=O)c2)c1`, the Activity result is “Dose-dependent effect” with U87 [1]; “Dose-dependent effect” in the series with U87 [2]; “Non-Toxic” in series [5]; “Non-Toxic” with HEK-293T; “Dose-dependent effect” in the series with U87 [6]; “Dose-dependent effect” in the series on U87 [7]. The Activity result in the series with U87 [8] is “Dose-dependent effect”. Moreover, the IC50 in the series with U-251 came out at 2.23 µM; in the series on U-87 MG [4] (setting [20]) it was 1.78 µM; in the series on A 172, 6.03 µM. Moreover, in the series on U-87 MG [3], the result was inactive.

In the case of `CC(C)(C)CC(=O)N1CC[C@]2(C(=O)Nc3ccccc32)[C@H]1c1cccc(-c2ccc(CO)c(S(C)(=O)=O)c2)c1`, in the series with U-87 MG [4] (u-87mg atcc), the IC50 entry was “Not Active”.

Regarding `CC(C)(C)OC(=O)N1CC[C@]2(C(=O)Nc3ccccc32)[C@H]1c1cccc(-c2cc(F)c(CO)c(S(C)(=O)=O)c2)c1`, the half-inhibitory concentration (IC50) in the series with U-87 MG [4] (setting [20]) worked out at 7.78 µM.

As to `CC(C)(C)OC(=O)N1CCC2(C(=O)Nc3ccccc32)C1c1cccc(-c2ccc(CO)c(S(C)(=O)=O)c2)c1` (centres undefined), the IC50 in the series on U-87 MG [4] (setting [20]) worked out at 7.05 µM.

For `CC(C)(C)OC(=O)N1CCC2(C(=O)Nc3ccccc32)C1c1cccc(-c2ccccc2)c1` (centres undefined), the concentration for half-maximal inhibition (IC50) with U-87 MG [4] (setting [20]) came to 22.6 µM.

In the case of `CC(C)(C)OC(=O)N1CC[C@]2(C(=O)Nc3ccccc32)[C@H]1c1cccc(-c2ccc(CO)cc2)c1`, the half-inhibitory concentration (IC50) result with U-87 MG [4] (u-87mg atcc) is reported as “Not Active”.

Turning to `CC(C)(C)OC(=O)N1CC[C@@]2(C(=O)Nc3ccccc32)[C@@H]1c1cccc(-c2cc(F)c(CO)c(S(C)(=O)=O)c2)c1`, the IC50 entry in the series on U-87 MG [4] (u-87mg atcc) is on record as “Not Active”.

On to `CC(C)(C)OC(=O)N1CC[C@@]2(C(=O)Nc3ccccc32)[C@@H]1c1cccc(-c2ccccc2)c1`, for which the IC50 entry in the series on U-87 MG [4] (u-87mg atcc) was “Not Active”.

Take `CC(C)(C)OC(=O)N1CC[C@]2(C(=O)Nc3ccccc32)[C@H]1c1cccc(-c2cccc(S(C)(=O)=O)c2)c1`: in the series on U-87 MG [4] (u-87mg atcc), the 50% inhibitory concentration (IC50) entry is “Not Active”.

For the compound `COC(=O)c1ccc(-c2cccc([C@H]3N(C(=O)OC(C)(C)C)CC[C@]34C(=O)Nc3ccccc34)c2)cc1S(C)(=O)=O`, the IC50 with U-87 MG [4] (setting [20]) turned out to be 7.53 µM.

Consider `CC(C)(C)CC(=O)N1CC[C@@]2(C(=O)Nc3ccccc32)[C@@H]1c1cccc(-c2ccc(CO)c(S(C)(=O)=O)c2)c1`, for which, in the series on U-87 MG [4] (u-87mg atcc), the IC50 result is recorded as “Not Active”.

In the case of `Fc1ccc(-c2c3cccc(C(F)(F)F)c3nn2Cc2ccc(F)cc2Cl)cc1` [LXR-623], the IC50 in the series with U-251 worked out at 3.06 µM; in the series on U-87 MG [4] (setting [20]) it was 6.14 µM; in the series with A 172, 8.3 µM. Moreover, the Activity entry in series [9] is “Toxic”. In addition, the EC50 in series [10] was 0.000212 µM; in [11], 0.000431 µM.

Compound `CC(C)(C)OC(=O)N1CCC2(C(=O)Nc3ccccc32)C1c1cccc(Nc2ccc(CO)c(S(C)(=O)=O)c2)c1` (racemic) gave an AUC(0-t) at 24 h in [12] of 1250 ng·h/mL. In addition, the result with U-87 MG [13] was Active. Moreover, in series [14], the half-life was 2.98 h. For the same compound, in series [15], the MRT inf stood at 3.48 h. Moreover, the IC50 in the series with U-87 MG [4] (setting [20]) was determined as 3.75 µM. Also, the Activity entry in [9] and in [17] was “Non-Toxic” throughout. Also, in series [16], the AUC(0-inf) came to 1410 ng·h/mL. Moreover, the Tmax in series [18] worked out at 0.22 h. In series [19], this compound returned a Cmax of 1010 ng/mL.

As to `CC(C)(C)OC(=O)N1CCC2(C(=O)Nc3ccccc32)C1c1cccc(-c2cc(F)c(CO)c(S(C)(=O)=O)c2)c1` (centres undefined), the IC50 in the series on U-87 MG [4] (setting [20]) came to 8.49 µM.

For the compound `O=C(O)Cc1cccc(OCCCN(Cc2cccc(C(F)(F)F)c2Cl)CC(c2ccccc2)c2ccccc2)c1`, the IC50 in the series on U-87 MG [4] (setting [20]) was determined as 3.65 µM. Besides, the Activity result in series [9] is reported as “Toxic”. Moreover, the 50% effective concentration (EC50) stood at 0.000228 µM in series [10] and 0.000401 µM in [11].

As to `COC(=O)c1ccc(-c2cccc([C@@H]3N(C(=O)OC(C)(C)C)CC[C@@]34C(=O)Nc3ccccc34)c2)cc1S(C)(=O)=O`, the IC50 result in the series on U-87 MG [4] (u-87mg atcc) is given as “Not Active”.

For the compound `CC(C)(C)CC(=O)N1CCC2(C(=O)Nc3ccccc32)C1c1cccc(-c2ccc(CO)c(S(C)(=O)=O)c2)c1` (centres undefined), in the series on U-87 MG [4] (u-87mg atcc), the IC50 entry is “Not Active”.

`CC(C)(C)OC(=O)N1CC[C@@]2(C(=O)Nc3ccccc32)[C@@H]1c1cccc(-c2ccc(CO)c(S(C)(=O)=O)c2)c1`: the IC50 result in the series with U-87 MG [4] (u-87mg atcc) is on record as “Not Active”.

For the compound `COC(=O)c1ccc(-c2cccc(C3N(C(=O)OC(C)(C)C)CCC34C(=O)Nc3ccccc34)c2)cc1S(C)(=O)=O` (centres undefined), the IC50 in the series on U-87 MG [4] (setting [20]) is 13.3 µM.

Regarding `CC(C)(C)OC(=O)N1CC[C@@]2(C(=O)Nc3ccccc32)[C@@H]1c1cccc(Nc2ccc(CO)c(S(C)(=O)=O)c2)c1`, the IC50 result in the series on U-87 MG [4] (u-87mg atcc) is reported as “Not Active”.

On to `CN(C)C(=O)c1ccc(-c2cccc([C@H]3N(C(=O)OC(C)(C)C)CC[C@]34C(=O)Nc3ccccc34)c2)cc1Cl`, for which, in the series on U-87 MG [4] (u-87mg atcc), the IC50 result is given as “Not Active”.

As for `CC(C)(C)OC(=O)N1CC[C@]2(C(=O)Nc3ccccc32)[C@H]1c1cccc(-c2ccc(CO)c(S(C)(=O)=O)c2)c1`, in the series with U-87 MG [4] (setting [20]), the IC50 is 6.36 µM.
